Results taken from BindingDB's records for doi:10.1002/cbic.201700052 (University of Illinois, 2017).

Assays:
Test in all cases: In Silico Screening
[1] = target: T1, 4-hydroxy-3-methylbut-2-enyl diphosphate reductase (Escherichia coli (strain K12), UniProt P62623)
T1 sequence (P62623 whole entry): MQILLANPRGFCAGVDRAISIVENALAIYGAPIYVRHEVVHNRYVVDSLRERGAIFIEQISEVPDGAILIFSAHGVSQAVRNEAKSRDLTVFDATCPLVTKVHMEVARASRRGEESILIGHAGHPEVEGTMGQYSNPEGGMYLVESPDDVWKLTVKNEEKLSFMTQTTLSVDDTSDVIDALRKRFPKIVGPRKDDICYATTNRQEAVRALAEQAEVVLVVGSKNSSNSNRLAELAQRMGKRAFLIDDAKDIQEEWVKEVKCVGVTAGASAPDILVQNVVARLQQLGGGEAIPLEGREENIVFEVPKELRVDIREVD
Text: (§1) In order to find new inhibitors, we carried out in silico screening of AaIspH and EcIspH using ZINC and National Cancer Institute (NCI) libraries and Glide docking, essentially as previously described.[Lindert et al., Chem. Biol. Drug Des., 81:742-748]

[2] = target: T2, 4-hydroxy-3-methylbut-2-enyl diphosphate reductase (Aquifex aeolicus (strain VF5), UniProt O67625)
T2 sequence (O67625 whole entry): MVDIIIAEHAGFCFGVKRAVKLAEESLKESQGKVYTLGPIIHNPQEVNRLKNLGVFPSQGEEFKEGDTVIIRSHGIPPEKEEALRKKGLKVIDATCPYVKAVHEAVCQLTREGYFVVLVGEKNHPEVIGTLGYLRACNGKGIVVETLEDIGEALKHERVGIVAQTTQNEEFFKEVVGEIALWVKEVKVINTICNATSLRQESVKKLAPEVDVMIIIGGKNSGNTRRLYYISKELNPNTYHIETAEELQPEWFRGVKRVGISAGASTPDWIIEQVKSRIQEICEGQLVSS
Text: as §1

[3] = target: T3, 4-hydroxy-3-methylbut-2-enyl diphosphate reductase (Pseudomonas aeruginosa (strain ATCC 15692 / PAO1 / 1C / PRS 101 / LMG12228), UniProt Q9HVM7)
T3 sequence (Q9HVM7 whole entry): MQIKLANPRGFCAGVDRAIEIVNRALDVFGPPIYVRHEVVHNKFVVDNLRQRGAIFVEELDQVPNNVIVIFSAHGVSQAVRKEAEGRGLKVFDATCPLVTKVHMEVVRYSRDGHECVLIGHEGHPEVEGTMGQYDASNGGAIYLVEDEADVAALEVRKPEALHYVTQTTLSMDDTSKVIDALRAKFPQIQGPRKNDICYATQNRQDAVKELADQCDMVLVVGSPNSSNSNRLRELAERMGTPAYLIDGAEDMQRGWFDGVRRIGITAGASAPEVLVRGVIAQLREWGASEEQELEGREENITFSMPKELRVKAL
Text: as §1

Row | Compound | Ki [1] | Ki [2] | Ki [3]
1 | Nc1ccc2c(c1)CC1(C(=O)NC(=O)NC1=O)C1CN(Cc3ccccc3)CCN21 (stereo not drawn) [8-Amino-3-benzyl-2,3,4,4 a-tetrahydro-1,2'H,6H-spiro[pyrazino[1,2-a]quinoline-5,5'-pyrimidine]-2',4',6'(1'H,3'H)-trione] | 3000 nM | 700 nM | –
2 | CCN1CCN2c3ccc(N)cc3CC3(C(=O)NC(=O)NC3=O)C2C1 (stereo not drawn) [IspH inhibitor, 8] | – | – | 500 nM
